Source: patent publication US7879791B2 (Medical College of Georgia Research Institute, Inc., priority 1997, dated 2011)

Key:
IDO [1] = target: T1, IDO (Homo sapiens, UniProt P14902); assay: Macrophage-mediated suppression of T cell proliferation in co-cultures of MCSF-derived macrophages and T cells with anti-CD3; type: cell-based; design: endogenous in cells; host or cells: MCSF-derived human monocyte-derived macrophages co-cultured with T cells; conditions: 10x normal tryptophan
Experimental: Proliferation was measured after 72 hrs by thymidine incorporation. The level of background proliferation contributed by macrophages is indicated by the dotted line. In FIG. 4B, macrophages were seeded at both low density (5×10^4/well) and high density (2×10^5/well).
Target sequence in this assay (P14902 whole entry): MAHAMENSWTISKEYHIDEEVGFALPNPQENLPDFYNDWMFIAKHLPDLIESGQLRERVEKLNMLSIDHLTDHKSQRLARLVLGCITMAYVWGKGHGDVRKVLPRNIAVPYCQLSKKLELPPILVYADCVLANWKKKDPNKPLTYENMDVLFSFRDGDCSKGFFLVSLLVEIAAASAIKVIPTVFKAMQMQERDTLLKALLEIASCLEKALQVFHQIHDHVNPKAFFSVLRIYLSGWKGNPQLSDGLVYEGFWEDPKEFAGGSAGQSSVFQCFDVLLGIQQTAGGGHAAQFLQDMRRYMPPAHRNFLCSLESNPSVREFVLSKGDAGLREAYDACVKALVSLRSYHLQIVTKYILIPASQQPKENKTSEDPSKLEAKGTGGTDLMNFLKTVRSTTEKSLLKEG

[2] = patients / individuals, literature reports; cited from earlier work
MCSF-derived macrophages [3] = assay: Elimination kinetics of tryptophan in co-cultures of MCSF-derived macrophages and mitogen-activated T cells; type: cell-based, human; conditions: when tryptophan was not limiting
Experimental: MCSF-derived macrophages were cultured for 24 hrs with autologous T cells, with or without anti-CD3 mitogen. The medium was replaced with fresh medium, and supernatant from replicate cultures harvested at the times shown. […] Error bars (less than 10%) are omitted for clarity.
Depletion of tryptophan is rapid. Macrophages were co-cultured with T cells and mitogen for 24 hrs to allow up-regulation of the tryptophan-depletion pathway, then fresh medium was added and the kinetics of elimination measured. […] This rapid rate of tryptophan depletion could not be attributed to consumption by cellular metabolism.

T cells = assay: T cell proliferation (thymidine incorporation) in co-culture conditioned medium with tryptophan titrated back; type: cell-based, human
Experimental: FIG. 1 is a graph of thymidine incorporation (cpm) by T cells in the presence of supplemental amino acids. […] Human monocytes were allowed to differentiate into macrophages then co-cultured with mitogen-activated T cells (anti-CD3). Fresh PBMC were then suspended in this medium and activated with additional anti-CD3. […] Control cultures received fresh medium. Proliferation was measured by 4 hr thymidine incorporation after 72 hrs. Error bars show SD.
Fresh lymphocytes were suspended in conditioned medium and activated with additional mitogen. Care was taken to exclude all traces of fresh medium.

MCSF-derived macrophages [4] = assay: Induction of IDO activity (tryptophan degradation) in MCSF-derived macrophages by IFNγ with or without CD40L; type: cell-based, human
From the text: MCSF-derived macrophages were activated for 24 hrs with various concentrations of recombinant IFNγ, in the presence or absence of recombinant CD40-L trimer. […] SD was less than 10%.
The response of MCSF-derived macrophages to IFNγ in the presence or absence of recombinant CD40L (prepared as a homo-trimer in order to signal via CD40 in soluble form, gift of Bill Fanslow, Immunex Corporation) was compared.

[5] = tested on: tryptophan transport system in MCSF-derived macrophages; assay: [3H]tryptophan uptake in MCSF-derived macrophages with competing unlabeled amino acids; type: cell-based, human; conditions: for effectiveness as competitor for tryptophan uptake compared with phenylalanine: titration studies
Experimental: The graph compares fresh monocytes, MCSF-derived macrophages (day 7), and MCSF-derived macrophages activated for the preceding 24 hrs with IFNγ. All assays were performed in the presence of 140 mM NaCl. […] A logarithmic scale is used to permit comparison.
Macrophages were cultured for 7 days in MCSF and activated during the last 24 hrs with IFNγ.
This sodium-independent system was then characterized using cross-competition studies.

MB49 tumor cells = assay: MB49 epithelial carcinoma in syngeneic hosts; type: in vivo, mouse
Experimental: In light of the data herein showing that the allogeneic fetus is able to protect itself against attack by the maternal immune system through expression of IDO, and given the expression of IDO in tumors as cited above, it was tested whether a similar mechanism allowed tumor cells to evade immune attack. The MB49 epithelial carcinoma model was chosen for proof of concept because it is an aggressive, lethal malignancy when innoculated into syngeneic hosts, but it can be rendered susceptible to immune attack if the host's immune system is suitably activated (Chen, et al. 1997 J. Immunol. 159, 351-359). […] MB49 tumor cells (1×10^6) were injected subcutaneously into syngeneic C57/B16 hosts. […] By day 10, all animals had evidence of initial tumor formation (palpable mass). By day 15, control animals were visibly ill and the experiment was terminated. Animals were sacrificed on day 11-15 for histologic examination.

IDO [6] = target: T1, IDO; design: host or cells: tumor xenografts in IFNγ-treated animals; conditions: IFNγ-treated animals; cited from earlier work
Target sequence in this assay (P14902 whole entry, species assumed): as the sequence (P14902 whole entry) above

[7] = group n = 7, pellets 0.9 mg/hr, 7-day release

Molecule: N[C@@H](Cc1c[nH]c2ccccc12)C(=O)O [tryptophan]
- reversal of suppression by supplemental tryptophan (IDO [1]; high seeding density (2x10^5/well)): remained able to suppress
- reversal of suppression by supplemental tryptophan (IDO [1]; low seeding density (5x10^4/well)): effectively reversed suppression
- autoimmune or adverse illness reported [2]: multiple autoimmune disorders
- initial rate of tryptophan elimination (MCSF-derived macrophages [3]): up to 20,000 pmol/10^6 cells/hr
- EC50 (T cells; Homo sapiens, T-cell, 72 h, read-out: half-maximal concentration for T cell proliferation): ~500 nM
- concentration sufficient to initiate low but readily detectable T cell proliferation (T cells; tryptophan in conditioned medium): 50 nM

Molecule: CC(n1cc(C[C@H](N)C(=O)O)c2ccccc21)n1cc(C[C@H](N)C(=O)O)c2ccccc21 [1-1′ ethylidenebis-[tryptophan]]
- autoimmune or adverse illness reported [2]: eosinophilia-myalgia syndrome

Molecule: IFNγ: recombinant interferon gamma, inducer of IDO
- IFNγ concentration at which significant response occurred (MCSF-derived macrophages [4]; in the presence of CD40L): ≥ 1 U/ml
- concentration required for maximal induction of tryptophan degradation (MCSF-derived macrophages [4]; recombinant IFNγ alone, 24 hrs): ≥ 100 U/ml

Molecule: CC(C)C[C@H](N)C(=O)O [leucine]
- effectiveness as competitor for tryptophan uptake compared with phenylalanine [5]: even less effective competitors

Molecule: N[C@@H](Cc1ccccc1)C(=O)O [phenylalanine]
- inhibition of tryptophan uptake by competing unlabeled amino acid ([5]; 8 mM each, sodium-independent, FIG. 8B): could not fully block

Molecule: NC1(C(=O)O)CC2CCC1C2 (centres unmarked) [BCH, 2-amino-2-norborane-carboxylic acid]
- total tryptophan transport still available ([5]; system L inhibited by 8 mM BCH): 30-50%
- effectiveness as competitor for tryptophan uptake compared with phenylalanine [5]: even less effective competitors

Molecule: N[C@@H](Cc1c[nH]c2ccc(O)cc12)C(=O)O [L-5-hydroxytryptophan]
- autoimmune or adverse illness reported [2]: high frequency of a scleroderma-like illness

Molecule: Cn1cc(C[C@H](N)C(=O)O)c2ccccc21 [1-methyl-tryptophan]
- continuation of responses after the period of inhibitor administration (MB49 tumor cells; administration days 1-7): 4 to 7 days
- histology (day 15) (MB49 tumor cells; day 15): apoptosis, necrosis,
- complete responses (MB49 tumor cells; [7]): 1
- partial responses (MB49 tumor cells; [7]): 6
- tumor growth compared to vehicle control (MB49 tumor cells; immunocompetent, syngeneic hosts): significantly reduced tumor growth
- performance status (MB49 tumor cells; mouse, in vivo): normal
- visible metastases (MB49 tumor cells; mouse, in vivo): none
- size of residual tumor (MB49 tumor cells; residual tumor necrotic): 1 cm (necrotic)

Molecule: N[C@@H](Cc1ccc(O)cc1)C(=O)O [Tyrosine]
- effectiveness as competitor for tryptophan uptake compared with phenylalanine [5]: even less effective competitors

B1: CD40L: recombinant CD40L prepared as a homo-trimer to signal via CD40 in soluble form (protein, UniProt P29965 47-261, looked up)
extracellular domain: HRRLDKIEDERNLHEDFVFMKTIQRCNTGERSLSLLNCEEIKSQFEGFVKDIMLNKEETKKENSFEMQKGDQNPQIAAHVISEASSKTTSVLQWAEKGYYTMSNNLVTLENGKQLTVKRQGLYYIYAQVTFCSNREASSQAPFIASLCLKSPGRFERILLRAANTHSSAKPCGQQSIHLGGVFELQPGASVFVNVTDPSQVSHGTGFTSFGLLKL
modifications: extracellular domain soluble homo-trimer
notes: recombinant CD40L prepared as a homo-trimer to signal via CD40 in soluble form
- effect on enzyme activity (MCSF-derived macrophages [4]; CD40L alone): little effect
- shift of the dose-response curve of IFNγ (MCSF-derived macrophages [4]; CD40L combined with IFNγ): one to two orders of magnitude

B2: IFNγ: recombinant interferon gamma, inducer of IDO (protein, UniProt P01579 24-161, looked up)
Interferon gamma: QDPYVKEAENLKKYFNAGHSDVADNGTLFLGILKNWKEESDRKIMQSQIVSFYFKLFKNFKDDQSIQKSVETIKEDMNVKFFNSNKKKRDDFEKLTNYSVTDLNVQRKAIHELIQVMAELSPAAKTGKRKRSQMLFRG
- reduction in tumor tryptophan compared to controls (IDO [6]): approximately 80%
